# Results: patent US11007273B2, “Prochelators as targeted prodrugs for prostate cancer and methods of making and using same” (Duke University, priority 2017, dated 2021)
# Entries after “also recorded” stand apart in the source; their conditions may differ. Read-outs that look alike come from different tables or passages of the source. Non-standard residues stand in square brackets, D forms with d. Residues, ends and D or L forms follow the SMILES beside them. *: point of attachment. X1 = CCN(CC)C(=S)SCc1ccc(N*)cc1
# Experiments:
# [1] = test system: PC-3 cells; assay: cells; assay type: cell-based, human
# Description: (§1) Antiproliferation assay: To determine the amount of Cu(II) required for cell studies a checkerboard assay was performed by varying the prodrug or drug concentration and Cu(II) concentration. 22RV1, LNCaP, PC3, MCF-7, and PWR-1E (5,000 cells/well) were seeded in 96-well plates with regular media (22Rv1, LNCaP, and PC-3 in RPMI with 10% FBS; MCF-7 in DMEM with 10% FBS; PWR-1E in Keratinocyte-SFM) and let adhere for 24 h. The following day, the media was replaced with serum free media and cells were treated as indicated for an additional 24 h or 72 h. Cell proliferation was measured using a fluorometric resazurin reduction method. 20 μL of 700 μM Resazurin (Sigma R7017) was added in each well and incubated at 37° C. for 2 h. Fluorescence at 580 nm was measured by exciting at 555 nm with a plate reader. Each experiment was performed in triplicate, and the experiments were repeated three times. Viability vs drug concentration plot from a representative experiment are shown with standard deviation from the experiment as error bar. The error bar in IC50 values represents standard deviation from three different experiments.
# [2] = test system: LNCaP cells; assay: cells; assay type: cell-based, human
# Description: as §1
# [3] = test system: MCF-7 cells; assay: cells; assay type: cell-based, human
# Description: as §1
# [4] = test system: 22Rv1 cells; assay: cells; assay type: cell-based, human
# Description: as §1
# [5] = test system: PWR-1E cells; assay: cells; assay type: cell-based, human
# Description: as §1
# [6] = test system: PWR-1E cells; assay: Glu-DTC cleavage in cell culture, PWR-1E; assay type: cell-based, human; conditions: GGT(−), 100 μM, 24 h
# Description: (§2) Glu-DTC cleavage in cell culture: 22Rv1 and PWR-1E cell lines were plated into a 24 well plate (2×10^5 cells/well) with their respective growth media and allowed to adhere overnight. The following day, the growth media was removed, and each cell line was washed with PBS. 2 mL of 100 μM Glu-DTC in serum free media along with 1 mM Gly-Gly was added to the cells. One batch of 22Rv1 were treated with 2 mM Acivicin, a GGT inhibitor, along with Glu-DTC and Gly-Gly. 100 μL aliquots were taken at various time points over 72 h. Each aliquot was analyzed via HPLC to generate chromatographs of the progress of Glu-DTC digestion. Caffeine was added as reference and the ratio of Glu-DTC peak area with respect to caffeine was plotted as percentage considering initial Glu-DTC level as 100%.
# [7] = target: T1, GGT (Homo sapiens, UniProt P19440); assay: GGT enzyme cleavage assay (LC/MS); assay type: biochemical; conditions: 100 μM, 100 U/L GGT, 15 min, then 500 μM CuSO4
# T1 sequence (P19440 whole entry, species assumed): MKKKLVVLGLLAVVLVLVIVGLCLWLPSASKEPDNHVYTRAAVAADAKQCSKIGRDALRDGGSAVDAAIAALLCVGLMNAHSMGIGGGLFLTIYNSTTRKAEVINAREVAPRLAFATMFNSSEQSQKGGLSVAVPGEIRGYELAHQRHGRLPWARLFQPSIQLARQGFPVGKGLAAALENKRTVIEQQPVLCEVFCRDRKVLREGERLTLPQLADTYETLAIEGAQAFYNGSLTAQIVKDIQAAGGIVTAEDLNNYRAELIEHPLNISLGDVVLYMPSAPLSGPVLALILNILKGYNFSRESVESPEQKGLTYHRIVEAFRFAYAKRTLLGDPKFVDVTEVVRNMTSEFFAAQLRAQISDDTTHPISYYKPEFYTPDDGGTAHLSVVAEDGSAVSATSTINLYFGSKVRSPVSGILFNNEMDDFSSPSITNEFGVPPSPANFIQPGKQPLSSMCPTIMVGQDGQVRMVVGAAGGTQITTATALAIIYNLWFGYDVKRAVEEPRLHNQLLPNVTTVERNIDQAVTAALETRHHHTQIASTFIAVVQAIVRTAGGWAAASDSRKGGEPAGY
# Description: GGT Enzyme cleavage assay: In order to detect DTC liberated from prodrug by reactivity with GGT, 100 μM Glu-DTC was exposed to 100 U/L GGT in the presence of 1 mM Gly-Gly (PBS; pH 7.4; 37° C.). After 15 min, 500 μM CuSO4 was added to the vial, mixed well, then analyzed by LC/MS using an H2O: acetonitrile gradient for 25 min starting with 95% H2O:acetonitrile to 5% H2O:acetonitrile. A peak eluting at 12 min was observed corresponding to Glu-DTC as detected by MS, while a second peak eluting at 22 min corresponded to Cu(DTC)2 as detected by MS.
# [8] = target: T1, GGT; assay: Competition experiments vs. γE-pNA for GGT; assay type: biochemical; conditions: vs E-pNA; PBS, pH 7.4, 1 mM GlyGly
# Description: Competition experiments vs. γE-pNA for GGT: To perform the inhibition study, a serial dilution of γE-pNA was performed ranging from 1 mM to 3 μM in PBS with 1 mM Gly-Gly (dilution factor=0.5; pH 7.4; 10% DMSO; 100 μL) using a clear, flat bottom 96 well plate. GGT binding molecules, as indicated, were added to separate sets of triplicate wells to reach a final concentration of 10 and 100 μM. Before the addition of enzyme, the plate was cooled to 4° C. for 15 min. To initiate the assay, 10 μL of 50 U/L GGT was added to each well and an initial absorbance scan was performed. Subsequent scans were performed every 10 min for ˜2 h. In between each scan, the plates were stored at 37° C. in a humidified incubator to reduce solvent evaporation. The experiment was repeated in triplicate.
# To probe the reactivity of Glu-DTC in comparison to the enzyme's natural substrate GSH, competition experiments were conducted against the colorimetric substrate L-glutamic acid γ-(p-nitroanilide) [E-pNA]. The colorimetric assay involves monitoring p-nitroaniline release by absorbance at 405 nm upon reaction of the probe substrate E-pNA with GGT in the presence of an inhibiting substrate, either Glu-DTC (FIG. 15A) or GSH (FIG. 15C).
# [9] = test system: 22Rv1 cells; assay: Glu-DTC cleavage in cell culture, 22Rv1; assay type: cell-based, human; conditions: 100 μM
# Description: as §2
# [10] = target: T1, GGT; assay: Copper-calcein competition assay with GGT exposure; assay type: biochemical; conditions: 20 U/L GGT, 1 mM Gly-Gly, 12.5 μM, 37° C.
# Description: Plots at different timepoint of GGT exposure in accordance with one embodiment of the present disclosure. […] Solutions contained 1 μM CuSO4, 1 μM calcein, 20 U/L of GGT enzyme, and 12.5 μM of either Glu-DTC (grey) or DTC (black) in PBS buffer pH 7.4 with 1 mM Gly-Gly; 37° C.
# Calcein assay: In a 96-well plate 12.5 μM prodrug or DTC chelator was dissolved in PBS (pH=7.4) from a 20 mM stock solution in DMSO. To each well Calcein (Cu) was added to reach a final concentration of 1 μM. The fluorescence of calcein was measured using a plate reader with λex=485 nm and λem=535 nm. After measuring the initial fluorescence, Gly-Gly and GGT were added in each well to make up to a final concentration of 1 mM and 20 U/L respectively. The plate was scanned at various time points to observe prodrug turnover via the development of a fluorescent signal caused by Cu removal from Calcein. The fluorescence emission was plotted as percentage with fluorescence of 1 μM Calcein in PBS as 100% and 1 μM (Cu)Calcein as 0%. The experiment was repeated in triplicate and standard deviations are represented as error bars.
# [11] = target: PSA enzyme (Homo sapiens, UniProt P07288); assay: In vitro cleavage by PSA enzyme (LC trace); assay type: biochemical; conditions: 20 μg/mL of PSA
# Chain of PSA enzyme (P07288 25-261): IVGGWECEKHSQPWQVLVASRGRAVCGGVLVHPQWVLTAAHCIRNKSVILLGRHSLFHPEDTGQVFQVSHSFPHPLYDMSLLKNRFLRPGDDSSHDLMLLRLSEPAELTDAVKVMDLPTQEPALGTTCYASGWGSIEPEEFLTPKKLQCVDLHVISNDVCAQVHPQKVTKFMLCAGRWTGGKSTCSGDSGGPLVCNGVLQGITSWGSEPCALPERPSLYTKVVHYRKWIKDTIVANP
# Description: (§3) It is hypothesized that the […] enzyme cleaves the peptide bond between Tyr and Ser. The cleaved products are shown in Scheme 2. When treated with 20 μg/mL of PSA, PSA-DTC was completely converted to products within 6 h (FIG. 6A).
# [12] = assay type: in vitro ADME, human
# Description: Conditioned media from prostate cancer cell line, LNCaP, was used to test the cleavage of prodrug. […] Since DTC is not observed in the UV or mass spectrometer, Cu(II) was added before recording mass spectra to visualize the release of DTC. Cu(DTC)2 complex was observed indicating the release of DTC. PSA-DTC was completely cleaved within 4 h.
# [13] = test system: aminopeptidases; assay: Further treatment with aminopeptidases (DTC release); assay type: biochemical; conditions: after PSA treatment
# Description: as §3
structure (smiles),measurement,setting,value
CCN(CC)C(=S)SCc1ccc(NC(=O)CC[C@H](N)C(=O)O)cc1 [Glu-DTC],IC50,"[1]; Homo sapiens, PC-3, initial experiments, PC3, 24 h, above maximum tested 10 μM, obtained by extrapolation of the curve (FIG. 10A), read-out: IC50",~12 µM
same,IC50,"[1]; Homo sapiens, PC-3, 24 h, 1 μM CuSO4, read-out: IC50 with 1 μM CuSO4",5.5 ± 0.1 µM
same,IC50,"[1]; Homo sapiens, PC-3, 72 h, 1 μM CuSO4, read-out: IC50 with 1 μM CuSO4",1.32 ± 0.25 µM
same,IC50,"[2]; Homo sapiens, LNCaP, 24 h, LNCaP, 24 h, 1 μM CuSO4, read-out: IC50",0.8 µM
same,IC50,"[2]; Homo sapiens, LNCaP, 24 h, LNCaP, 24 h, 1 μM CuSO4, read-out: IC50 with 1 μM CuSO4",0.62 ± 0.04 µM
same,IC50,"[2]; Homo sapiens, LNCaP, 24 h, initial experiments, LNCaP, after 24 h, 1 μM supplemental Cu(II), read-out: IC50",0.76 µM
same,IC50,"[2]; Homo sapiens, LNCaP, 72 h, LNCaP, 72 h, 1 μM CuSO4, read-out: IC50 with 1 μM CuSO4",0.5 ± 0.09 µM
same,IC50,"[3]; Homo sapiens, MCF7, MCF-7, 24 h, 1 μM CuSO4, read-out: IC50 with 1 μM CuSO4",1.7 ± 0.1 µM
same,IC50,"[3]; Homo sapiens, MCF7, MCF-7, 72 h, 1 μM CuSO4, read-out: IC50 with 1 μM CuSO4",0.48 ± 0.04 µM
same,IC50,"[4]; Homo sapiens, 22Rv1, 24 h, 1 μM CuSO4, read-out: IC50",0.8 µM
same,IC50,"[4]; Homo sapiens, 22Rv1, 24 h, 1 μM CuSO4, read-out: IC50 with 1 μM CuSO4",0.76 ± 0.09 µM
same,IC50,"[4]; Homo sapiens, 22Rv1, 72 h, 1 μM CuSO4, read-out: IC50 with 1 μM CuSO4",0.29 ± 0.11 µM
same,IC50,"[4]; Homo sapiens, 22Rv1, 72 h continuous exposure, 1 μM CuSO4, read-out: IC50",0.3 µM
same,Cu(II) added to the growth medium required for antiproliferative activity,[4]; checkerboard pilot studies in 22Rv1 cells,300 nM
same,IC50,"[5]; Homo sapiens, PWR-1E, 24 h, PWR-1E, 24 h, 1 μM CuSO4, read-out: IC50 with 1 μM CuSO4",> 15 µM
same,IC50,"[5]; Homo sapiens, PWR-1E, 72 h, PWR-1E, 72 h, 1 μM CuSO4, read-out: IC50 with 1 μM CuSO4",1.5 µM
same,IC50,"[5]; PWR-1E, 24 h, 1 μM CuSO4, read-out: IC50 with 1 μM CuSO4",16.8 ± 4.4 µM
same,IC50,"[5]; PWR-1E, 72 h, 1 μM CuSO4, read-out: IC50 with 1 μM CuSO4",1.55 ± 0.02 µM
same,toxicity,"[5]; initial experiments, PWR-1E, within the tested concentration of 10 μM",did not show much toxicity
same,level of intact Glu-DTC in supernatant,[6],unchanged
same,prodrug cleavage and Cu(DTC)2 formation by LC/MS,[7],decrease in Glu-DTC peak and formation of Cu(DTC)2
same,Ki,[8],23 ± 5 µM
same,level of intact Glu-DTC in supernatant,"[9]; 22Rv1, 24 h, 1 mM GlyGly",significant loss of detectable Glu-DTC; also recorded: depletion was observed
same,stability time with GGT inhibitor Acivicin,"[9]; 22Rv1, co-exposure with Acivicin",at least 24 h
same,level of intact Glu-DTC in supernatant with Acivicin,"[9]; 22Rv1 treated with GGT-inhibitor Acivicin, 24 h",unchanged
same,calcein fluorescence after exposure to GGT enzyme,[10],recovery of calcein fluorescence over time
CCN(CC)C(=S)SCc1ccc(NC(=O)[C@@H](CC(C)C)NC(=O)[C@@H](CO)NC(=O)[C@@H](Cc2ccc(O)cc2)NC(=O)[C@@H](Cc2ccc(O)cc2)NC(=O)[C@@H](CO)NC(=O)[C@@H](CO)NC(=O)[C@H](N)CCCNC(=N)N)cc1 [PSA-DTC] (H-[dR][dS][dS][dY][dY][dS][dL]-X1),IC50,[1],0.49 µM
same,IC50,[2],0.39 µM
same,antiproliferative activity in checker board assay with Cu,"[2]; LNCaP, varying Cu and prodrug, within 24 h (dPSA-DTC: even after 72 h)",showed antiproliferative activity in the presence of Cu
same,IC50,[3],0.33 µM
same,IC50,[4],0.77 µM
same,IC50,[5],0.5 µM
same,time to complete conversion to products,[11],≤ 6 h
same,time to complete cleavage,[12],≤ 4 h
same,release of DTC on treatment with aminopeptidases,[13],led to the release of DTC
